According to PubChem BioAssay (NCI):
Where “and” joins values, the source holds several entries; their conditions need not be identical. Identical values can stand only once.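 Following 48 hours of exposure in 96-well plates, responses at five concentrations were used to interpolate endpoints linearly. At the GI50, growth is halved. At the TGI there is no net growth.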

Tests used:
Test in all cases: inhibition of tumour cell growth, NCI panel, 48 h
MALME-3M melanoma = tested on: MALME-3M melanoma
TK-10 renal = tested on: TK-10 renal
A549 NSCLC = tested on: A549 NSCLC
HCC-2998 colon = tested on: HCC-2998 colon
NCI-H522 lung = tested on: NCI-H522 lung
OVCAR-3 ovarian = tested on: OVCAR-3 ovarian
U251 CNS = tested on: U251 CNS
KM12 colon = tested on: KM12 colon
A498 renal = tested on: A498 renal
HCT-116 colon = tested on: HCT-116 colon

Row | Compound | TGI (MALME-3M melanoma) | TGI (TK-10 renal) | TGI (A549 NSCLC) | TGI (HCC-2998 colon) | TGI (NCI-H522 lung) | TGI (OVCAR-3 ovarian) | GI50 (U251 CNS) | TGI (U251 CNS) | TGI (KM12 colon) | GI50 (A498 renal) | TGI (A498 renal) | TGI (HCT-116 colon) | GI50 (MALME-3M melanoma) | GI50 (TK-10 renal) | GI50 (A549 NSCLC) | GI50 (HCC-2998 colon) | GI50 (NCI-H522 lung) | GI50 (OVCAR-3 ovarian) | GI50 (KM12 colon) | GI50 (HCT-116 colon)
1 | O=c1cccccc1[O-].O=c1cccccc1[O-].O=c1cccccc1[O-].[La+3] | 31.9 µM | 67.9 µM | > 100 µM | > 100 µM | 84.2 µM | 55.8 µM | 11 µM | 76.2 µM | > 100 µM | 23.6 µM | 90.1 µM | 31.2 µM |  |  |  |  |  |  |  | 
2 | COc1cc(-c2nc(SCCC(C)C)nc(Nc3ccc(S(N)(=O)=O)cc3)c2C#N)cc(OC)c1OC | 4.14 µM | > 100 µM | > 100 µM | > 100 µM | > 100 µM | 6.12 µM | 3.17 µM | > 100 µM | 5.56 µM | 1.89 µM | 5.36 µM | 4.85 µM | 1.6 µM | 3.5 µM | 3.46 µM | 3.22 µM | 3.52 µM | 2.38 µM | 2.2 µM | 2.01 µM
3 | C[N+]1=C(/C=C\C=C\c2ccccc2)C(C)(C)c2ccccc21 | 4.37 µM | 15.7 µM | 19.6 µM | 14.9 µM | 2.9 µM | 2.81 µM | 1.59 µM | 4.18 µM | 10.8 µM | 3.08 µM | 11.3 µM | 13.2 µM | 1.87 µM | 4.47 µM | 4.43 µM | 3.28 µM | 0.863 µM | 1.08 µM | 3.15 µM | 3.3 µM
4 | CCOC(=O)c1[nH]c(COC(C)=O)c2c1CCCCCCCCCC2 | > 100 µM | > 100 µM | > 100 µM | > 100 µM | > 100 µM | > 100 µM |  | > 100 µM | > 100 µM |  | > 100 µM | > 100 µM |  |  |  |  |  |  |  | 
5 | CN(C)c1ccc(/C=C/c2cc[n+](C)c(/C=C/c3ccc(N(C)C)cc3)c2)cc1 | 2.21 µM | 2.86 µM | 10.6 µM | 1.97 µM | 1.72 µM | 1.56 µM | 0.286 µM | 1.41 µM | 1.42 µM | 0.194 µM | 1.81 µM | 1.24 µM | 0.39 µM | 0.374 µM | 0.334 µM | 0.381 µM | 0.267 µM | 0.337 µM | 0.33 µM | 0.278 µM
6 | N#C/C(=C\c1ccc(Br)cc1)n1nnc2ccc(F)cc21 | 4.68 µM | 5.61 µM | 72.4 µM | 2.89 µM | 0.858 µM | 1.49 µM | 1.64 µM | 3.34 µM | 4.04 µM | 1.7 µM | 3.54 µM | 2.35 µM | 1.44 µM | 2.26 µM | 2.01 µM | 1.43 µM | 0.227 µM | 0.373 µM | 1.3 µM | 0.741 µM
7 | CCOc1ccc2nc(NC(=O)C(=O)C(c3cnc4ccccc4n3)[N+](=O)[O-])sc2c1 (stereo not given) | > 100 µM | > 100 µM | > 100 µM | > 100 µM | > 100 µM | > 100 µM |  |  | > 100 µM |  | > 100 µM | > 100 µM |  |  |  |  |  |  |  | 
8 | CN(C)c1ccc(/C=c2\sc3nc4ccccc4n3c2=O)cc1 | > 100 µM | > 100 µM | > 100 µM | > 100 µM | > 100 µM | > 100 µM |  | > 100 µM | > 100 µM |  | > 100 µM | > 100 µM |  |  |  |  |  |  |  | 
9 | C#CCOc1cccc(Nc2ncnc3cc(NC(=O)CCl)ccc23)c1 | 20.5 µM | 19.3 µM | 17.9 µM | 22.6 µM | 3.34 µM | 4.35 µM | 2.13 µM | 4.78 µM | 16.8 µM | 12.7 µM | 25.9 µM | 10.2 µM | 5.21 µM | 5.22 µM | 5.03 µM | 8.83 µM | 1.46 µM | 1.84 µM | 4.34 µM | 1.96 µM
10 | Cc1cc(C)c(-n2c(-c3ccc(Br)cc3)cs/c2=N\N=C2C=C(C(C)(C)C)C(=O)C(C(C)(C)C)=C2)c(C)c1 | > 100 µM | > 100 µM | > 100 µM | > 100 µM | > 100 µM | > 100 µM |  | > 100 µM | > 100 µM |  | 97.7 µM | > 100 µM |  |  |  |  |  |  |  | 
11 | O=c1c(-c2ccccc2)coc2cc(OC/C(=N/O)c3ccccc3)ccc12 | 28.3 µM | 38.4 µM | 25.2 µM | 27.2 µM | 64.4 µM | 60.1 µM | 21.4 µM | 56.1 µM | 48.3 µM | 16.5 µM | 33.4 µM | 68.6 µM | 10.4 µM | 13.1 µM | 3.62 µM | 10.1 µM | 7.54 µM | 24.7 µM | 20.2 µM | 11.2 µM
12 | CCN(CC)c1ccc(C(=O)c2ccc(N(CC)CC)cc2)cc1 | 17.4 µM | 68.9 µM | > 58.1 µM | 35.4 µM | 1.67 µM | 0.706 µM | 0.504 µM | 23.2 µM | 8.89 µM | 0.335 µM | 4.14 µM | 13.6 µM | 0.334 µM | 1.33 µM | 0.607 µM | 1.26 µM | 0.278 µM | 0.264 µM | 0.349 µM | 0.453 µM
13 | COc1cc(Nc2ncc(F)c(Nc3ccc4c(n3)N(COP(=O)(O)O)C(=O)C(C)(C)O4)n2)cc(OC)c1OC | 17.8 µM and > 10 µM | 3.06 µM | > 26.8 µM | > 100 µM | 7.02 µM and 7.1 µM | 33.6 µM and > 10 µM | 7.55 µM and 2 µM | > 100 µM | 15.4 µM and > 10 µM | 0.356 µM and 0.221 µM | 1.37 µM and 0.872 µM | 23.5 µM and > 10 µM | 3 µM and 5.93 µM | 0.774 µM and 0.768 µM | 2.27 µM and 2.11 µM | 16.4 µM | 1.53 µM and 1.24 µM | 2.66 µM and 2.71 µM | 0.498 µM and 0.409 µM | 3.25 µM and 3.02 µM
14 | COC(=O)Nc1nc2ccc(Br)cc2[nH]1 | > 100 µM | > 100 µM | > 100 µM | > 100 µM | 32.8 µM | 82.5 µM |  | 87 µM | > 100 µM |  | > 100 µM | > 100 µM |  |  |  |  |  |  |  | 
15 | Clc1ccc(C(n2cc(Br)cn2)n2cc(Br)cn2)cc1 | 31.7 µM | 32 µM | 32.6 µM | 31.8 µM | 27.7 µM | 28 µM |  | 30.8 µM | 31.6 µM |  | 33.1 µM |  |  |  |  |  |  |  |  | 
